Patent US11999794B2, “Human mesothelin chimeric antigen receptors and uses thereof” (Novartis AG, priority 2013, dated 2024)
Entries after “also recorded” stand apart in the source; their conditions may differ. Like-named read-outs stand apart in the source and are kept apart here.

Legend:
[1] = system: A/H1N1/California/07/2009; assay: Anti-influenza IgG and IgM levels in serum; format: in vivo, human; conditions: vs placebo cohorts
Description: The trial was observer-blind because the placebo in the RAD001 0.5 mg daily and 20 mg weekly cohorts differed slightly from the RAD001 tablets in those cohorts. […] The treatment duration for all cohorts was 6 weeks during which time subjects underwent safety evaluations in the clinic every 2 weeks. After subjects had been dosed for 4 weeks, RAD001 steady state levels were measured pre-dose and at one hour post dose. […] Antibody titers to the 3 influenza vaccine strains as well as to 2 heterologous strains (A/H1N1 strain A/New Jersey/8/76 and A/H3N2 strain A/Victoria/361/11) were measured by standard hemagglutination inhibition assay (Kendal, A P et al. (1982) Concepts and procedures for laboratory-based influenza surveillance. Atlanta: Centers for Disease Control and Prevention B17-B35). Levels of IgG and IgM specific for the A/H1N1/California/07/2009 were measured in serum samples taken before and 4 weeks after influenza vaccination as described previously (Spensieri, F. et al. (2013) Proc. Natl. Acad. Sci. USA 110:14330-14335). Results were expressed as fluorescence intensity.

[2] = Questionnaires on energy and exercise one year after dosing; format: in vivo, human; conditions: 0.5 mg daily cohort
[3] = cited from earlier work
hMSLN296-588 = target: T1, hMSLN296-588 (Homo sapiens, UniProt Q13421, N388Q/N488Q/N515Q); assay: Hydrogen-deuterium exchange mass spectrometry epitope mapping; format: binding; conditions: amino acid position 297 to 464
T1 construct: secretion signal […]; made in house; host or cells: Expi293 (alone, or co-expressed with scFv M5)
T1 sequence (Q13421 with tags, fused parts or gaps N388Q/N488Q/N515Q): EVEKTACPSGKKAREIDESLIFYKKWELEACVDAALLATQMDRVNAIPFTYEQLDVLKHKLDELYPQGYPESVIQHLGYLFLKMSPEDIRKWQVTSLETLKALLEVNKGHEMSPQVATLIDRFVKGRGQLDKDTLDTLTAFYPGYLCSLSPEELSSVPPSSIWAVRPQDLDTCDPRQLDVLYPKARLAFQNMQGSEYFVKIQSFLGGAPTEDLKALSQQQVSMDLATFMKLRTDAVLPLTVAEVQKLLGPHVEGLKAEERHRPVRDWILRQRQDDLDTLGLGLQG
Text: Hydrogen-deuterium exchange (HDx) in combination with mass spectrometry (MS) (Woods V L, Hamuro Y (2001) High Resolution, High-Throughput Amide Deuterium Exchange-Mass Spectrometry (DXMS) Determination of Protein Binding Site Structure and Dynamics: Utility in Pharmaceutical Design. J. Cell. Biochem. Supp.; 84(37): 89-98.) was used to map the putative binding site of scFv antibodies M5 and SS1 on human mesothelin(296-588), referred to herein as hMSLN296-588 (SEQ ID No 278). In HDx, exchangeable amide hydrogens of proteins are replaced by deuterium. This process is sensitive to protein structure/dynamics and solvent accessibility and, therefore, able to report on locations that undergo a decrease in deuterium uptake upon ligand binding.
HDx/MS experiments were performed using methods similar to those described in the literature (Chalmers M J, Busby S A, Pascal B D, He Y, Hendrickson C L, Marshall A G, Griffin P R (2006) Probing protein ligand interactions by automated hydrogen/deuterium exchange mass spectrometry. Anal. Chem.; 78(4): 1005-1014.Chalmers, 2006). The experiments were performed on a Waters HDx/MS platform, which included a LEAP autosampler, nanoACQUITY UPLC, and Synapt G2 mass spectrometer. […]

CO[C@H]1C[C@@H]2CC[C@@H](C)[C@@](O)(O2)C(=O)C(=O)N2CCCC[C@H]2C(=O)O[C@H]([C@H](C)C[C@@H]2CC[C@@H](OCCO)[C@H](OC)C2)CC(=O)[C@H](C)/C=C(\C)[C@@H](O)[C@@H](OC)C(=O)[C@H](C)C[C@H](C)/C=C/C=C/C=C/1C [RAD001, (1R,9S,12S,15R,16E,18R,19R,21R,23 S,24E,26E,28E,30S,32S,35R)-1,18-dihydroxy-12-{(1R)-2-[(1 S,3R,4R)-4-(2-hydroxyethoxy)-3-methoxycyclohexyl]-1-methylethyl}-19,30-dimethoxy-15,17,21,23,29,35-hexamethyl-11,36-dioxa-4-aza-tricyclo[30.3.1.04,9]hexatriaconta-16,24,26,28-tetraene-2,3,10,14,20-pentaone]
post-vaccination anti-influenza IgM and IgG levels [1]: No significant difference; also recorded: did not differ | energy and exercise ability [2]: increased energy and exercise ability as compared to placebo | trough level ([3]; 10 mg daily oncology dosing regimen): approximately 20 ng/ml | trough level ([3]; 0.75-1.5 mg bid transplant dosing regimen): approximately 3 ng/ml

B1: M5: human anti-mesothelin scFv SEQ ID NO: 43; full CAR SEQ ID NO: 67 (protein)
scFv: QVQLVQSGAEVEKPGASVKVSCKASGYTFTDYYMHWVRQAPGQGLEWMGWINPNSGGTNYAQKFQGRVTMTRDTSISTAYMELSRLRSDDTAVYYCASGWDFDYWGQGTLVTVSSGGGGSGGGGSGGGGSGGGGSDIVMTQSPSSLSASVGDRVTITCRASQSIRYYLSWYQQKPGKAPKLLIYTASILQNGVPSRFSGSGSGTDFTLTISSLQPEDFATYYCLQTYTTPDFGPGTKVEIK
mesothelin peptides significantly protected from deuterium uptake (hMSLN296-588): no protection
